According to publication PMC6366416, “Synthesis and in vitro anticancer activity of certain novel 1-(2-methyl-6-arylpyridin-3-yl)-3-phenylureas as apoptosis-inducing agents” (Journal of Enzyme Inhibition and Medicinal Chemistry, 2019):

What was measured:
A549 cell line = assay: MTT anti-proliferative assay; format: cell-based; conditions: Homo sapiens, 48 h of incubation, mean ± SD of three experiments
Description: (§1) A549 (non-small cell lung cancer cell line) and HCT-116 (human colon cancer cell line), were obtained from American Type Culture Collection (Manassas, VA, USA). The cells were maintained in Dulbecco’s Modified Eagle’s Medium (DMEM) (Sigma-Aldrich, St. Louis, MO), and supplemented with 10% heat-inactivated FBS (Hyclone), 10 μg/mL of insulin (Manufacturer, Sigma, St. Louis, MO, USA), and 1% penicillin-streptomycin. MTT assay[29] was adopted to assess the in vitro antitumor activity of the newly synthesized pyridines 5a–l according to the reported procedures, using Doxorubicin as a standard treatment. Experimental conditions were tested using three replicates (three wells of the 96-well plate per experimental condition) and all experiments were carried out in triplicates. IC50 values were calculated by the use of the equation for Boltzman sigmoidal concentration–response curve using the nonlinear regression fitting models by Graph Pad, Prism version 5 (GraphPad Software Inc., La Jolla, CA).
(§2) All newly synthesized pyridines 5a–l were examined for their anti-proliferative activity towards two cancer cell lines: non-small cell lung cancer A549 cell line and colon cancer HCT-116 cell line. The MTT colorimetric assay was adopted to assess the anti-proliferative activity as described by Mosmann[29]. Doxorubicin was used as a control in this assay.

HCT-116 cell line = assay: MTT anti-proliferative assay; format: cell-based; conditions: Homo sapiens, 48 h of incubation, mean ± SD of three experiments
Description: as §1, §2

WI-38 cell line = assay: MTT cytotoxicity towards non-tumorigenic cells; format: cell-based, human; conditions: for IC50: WI-38, MTT, non-tumorigenic human lung fibroblast, mean ± SD of three experiments; for S. I. WI-38/A549: selectivity index, IC50 WI-38 / IC50 A549
Description: The cytotoxic activity of all synthesized pyridines 5a–l were assessed against non-tumorigenic human lung fibroblast WI-38 cell line to investigate their safety, using the MTT colorimetric assay.

## Cc1nc(-c2ccc(F)cc2)ccc1NC(=O)Nc1cc(C(F)(F)F)cc(C(F)(F)F)c1 [Compound 5b, 1-(3,5-Bis(trifluoromethyl)phenyl)-3-(6-(4-fluorophenyl)-2-methylpyridin-3-yl)urea]
other
  melting point: 235 to 237 °C
A549 cell line
  IC50: 24.1 ± 1.78 µM
HCT-116 cell line
  IC50: 16 ± 1.52 µM
WI-38 cell line
  IC50: 151 ± 8.12 µM
  S. I. WI-38/A549: 6.3

## Cc1nc(-c2cccs2)ccc1NC(=O)Nc1ccc2c(c1)OCO2 [Compound 5k, 1-(Benzo[d][1, 3]dioxol-5-yl)-3-(2-methyl-6-(thiophen-2-yl)pyridin-3-yl)urea]
other
  melting point: 239 to 241 °C
A549 cell line
  IC50: 19.2 ± 2.05 µM
HCT-116 cell line
  IC50: 16.4 ± 1.3 µM
WI-38 cell line
  IC50: 139 ± 10.4 µM
  S. I. WI-38/A549: 7.2

## COc1cccc2c1C(=O)c1c(O)c3c(c(O)c1C2=O)C[C@@](O)(C(=O)CO)C[C@@H]3O[C@H]1C[C@H](N)[C@H](O)[C@H](C)O1 [Doxorubicin, reference compound]
A549 cell line
  IC50: 2.93 ± 0.28 µM
HCT-116 cell line
  IC50: 3.1 ± 0.22 µM
